Test results as given in patent US20200069644A1, “NOVEL USE OF A FORMYL PEPTIDE RECEPTOR 2/ LIPOXIN A4 RECEPTOR (FPR2/ALX) AGONIST FOR TREATMENT OF HEART FAILURE” (BRISTOL- MYERS SQUIBB COMPANY, priority 2017, published 2020).
pEC50: −log10 of the molar value. Values joined by “and” are separate entries in the source; they are usually repeats but may differ in a detail not shown here. Equal values may be shown once.

Tests used:
Assay type in all cases: cell-based
Human FPR2 = biological target: T1, Human FPR2 (Homo sapiens, UniProt P25090); assay: FPR2 cAMP assay (cAMP inhibition)
T1 construct: expressed in transfected cells; host or cells: CHO-A12
T1 sequence (P25090 1-351): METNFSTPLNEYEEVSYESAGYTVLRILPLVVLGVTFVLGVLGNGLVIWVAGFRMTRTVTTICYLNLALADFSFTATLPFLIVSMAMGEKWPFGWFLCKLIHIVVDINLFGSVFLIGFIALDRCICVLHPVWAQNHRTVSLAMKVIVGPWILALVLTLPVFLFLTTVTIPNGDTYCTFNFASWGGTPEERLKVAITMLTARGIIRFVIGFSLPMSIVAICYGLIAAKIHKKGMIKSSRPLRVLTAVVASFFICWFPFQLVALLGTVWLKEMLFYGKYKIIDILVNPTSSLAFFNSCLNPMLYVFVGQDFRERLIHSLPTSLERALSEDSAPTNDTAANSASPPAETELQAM
Procedure: (§1) A mixture of forskolin (5 μM final for FPR2 or 10 μM final for FPR1) and IBMX (200 μM final) were added to 384-well Proxiplates (Perkin-Elmer) pre-dotted with test compounds in DMSO (1% final) at final concentrations in the range of 0.1 nM to 10 μM. CHO overexpressing human FPR1 or human FPR2 receptors were cultured in F-12 (Ham's) medium supplemented with 10% qualified FBS, 250 μg/ml zeocin and 300 μg/ml hygromycin (Life Technologies). Reactions were initiated by adding 2,000 human FPR2 cells per well or 4,000 human FPR1 cells per well in Dulbecco's PBS (with calcium and magnesium) (Life Technologies) supplemented with 0.1% BSA (Perkin-Elmer). The reaction mixtures were incubated for 30 min at room temperature. The level of intracellular cAMP was determined using the HTRF HiRange cAMP assay reagent kit (Cisbio) according to manufacturer's instruction. Solutions of cryptate conjugated anti-cAMP and d2 flurorophore-labelled cAMP were made in a supplied lysis buffer separately. […] After a 1 h room temperature incubation, time-resolved fluorescence intensity was measured using the Envision (Perkin-Elmer) at 400 nm excitation and dual emission at 590 nm and 665 nm. […] The potency and activity of Compound 1 to inhibit cAMP production was then determined by fitting to a 4-parametric logistic equation from a plot of cAMP level versus compound concentrations. […]

Human FPR1 = biological target: T2, Human FPR1 (Homo sapiens, UniProt P21462); assay: FPR1 cAMP assay (cAMP inhibition); settings: Human FPR1/CHO-A12
T2 construct: expressed in transfected cells; host or cells: CHO-A12
T2 sequence (P21462 1-350): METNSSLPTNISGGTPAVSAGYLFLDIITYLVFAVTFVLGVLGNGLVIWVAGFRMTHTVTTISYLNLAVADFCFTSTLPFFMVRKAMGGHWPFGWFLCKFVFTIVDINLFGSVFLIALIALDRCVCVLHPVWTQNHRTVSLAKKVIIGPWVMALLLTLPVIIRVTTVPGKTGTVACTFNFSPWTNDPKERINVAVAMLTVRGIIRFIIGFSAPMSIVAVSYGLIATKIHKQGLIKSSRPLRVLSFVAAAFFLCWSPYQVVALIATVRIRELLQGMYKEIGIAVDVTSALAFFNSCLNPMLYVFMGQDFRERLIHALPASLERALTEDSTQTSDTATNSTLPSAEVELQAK
Procedure: as §1

Mouse FPR2 = biological target: T3, Mouse FPR2 (Mus musculus, UniProt O88536); assay: cAMP inhibition, mouse FPR2/CHO-A12
T3 construct: expressed in transfected cells; host or cells: CHO-A12
T3 sequence (O88536 1-351): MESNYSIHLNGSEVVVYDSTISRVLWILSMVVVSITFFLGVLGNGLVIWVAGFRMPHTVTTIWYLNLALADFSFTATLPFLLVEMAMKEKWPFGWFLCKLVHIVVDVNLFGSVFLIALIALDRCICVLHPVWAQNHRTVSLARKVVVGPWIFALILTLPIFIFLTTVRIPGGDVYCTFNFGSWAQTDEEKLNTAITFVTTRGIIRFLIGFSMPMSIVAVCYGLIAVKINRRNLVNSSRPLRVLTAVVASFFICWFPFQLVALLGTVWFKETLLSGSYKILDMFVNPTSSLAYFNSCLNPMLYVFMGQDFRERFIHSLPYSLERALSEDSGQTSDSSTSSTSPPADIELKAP
Procedure: [Worded in the source for another species; this species is reported under the same test.] as §1

Mouse FPR1 = biological target: T4, Mouse FPR1 (Mus musculus, UniProt P33766); assay: cAMP inhibition, mouse FPR1/CHO-A12
T4 construct: expressed in transfected cells
T4 sequence (P33766 1-364): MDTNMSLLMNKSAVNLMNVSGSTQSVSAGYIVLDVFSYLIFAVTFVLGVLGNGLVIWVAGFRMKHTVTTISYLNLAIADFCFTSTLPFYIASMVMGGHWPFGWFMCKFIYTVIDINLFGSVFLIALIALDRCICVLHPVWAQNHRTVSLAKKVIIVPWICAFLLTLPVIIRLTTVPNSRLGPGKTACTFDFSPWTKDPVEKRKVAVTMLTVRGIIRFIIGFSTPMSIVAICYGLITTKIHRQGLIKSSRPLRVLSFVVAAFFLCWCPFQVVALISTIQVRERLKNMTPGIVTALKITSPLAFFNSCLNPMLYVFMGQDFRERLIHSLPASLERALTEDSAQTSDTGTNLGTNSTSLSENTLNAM

Rat FPR2 [1] = biological target: Rat FPR2 (Rattus norvegicus, UniProt A0A8I6AM80); assay: cAMP inhibition, rat FPR2 CHO cells; settings: Rat FPR2
Rat FPR2 [2] = assay: cAMP inhibition, rat FPR2 CHO cells; settings: CHO cell lines, cAMP

Sequence of Rat FPR2 (Rattus norvegicus, UniProt A0A8I6AM80) (A0A8I6AM80 1-351): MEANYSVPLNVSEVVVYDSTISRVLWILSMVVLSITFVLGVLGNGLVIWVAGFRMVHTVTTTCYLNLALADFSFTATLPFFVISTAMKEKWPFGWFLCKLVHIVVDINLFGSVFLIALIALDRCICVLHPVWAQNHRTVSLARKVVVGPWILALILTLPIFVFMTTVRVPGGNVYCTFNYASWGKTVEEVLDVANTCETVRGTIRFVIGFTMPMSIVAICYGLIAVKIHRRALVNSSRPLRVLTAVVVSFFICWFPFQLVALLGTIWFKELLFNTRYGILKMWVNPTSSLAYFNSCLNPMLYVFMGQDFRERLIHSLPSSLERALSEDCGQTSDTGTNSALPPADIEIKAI

SMILES: COc1cc(F)c([C@@H]2CNC(=O)[C@H]2NC(=O)Nc2ccccc2)c(F)c1 [Compound 1, 1-((3S,4R)-4-(2,6-difluoro-4-methoxyphenyl)-2-oxopyrrolidin-3-yl)-3-phenylurea]
- selectivity for human FPR2 vs. FPR1 (Human FPR2; CHO cell lines, cAMP): 446 fold
- pEC50 (Human FPR2; Human FPR2/CHO-A12): 8.55
- pEC50 (Human FPR1): 5.90
- selectivity for mouse FPR2 vs. FPR1 (Mouse FPR2; CHO cell lines, cAMP): 640 fold
- pEC50 (Mouse FPR2; Mouse FPR2/CHO-A12): 9.22
- pEC50 (Mouse FPR1): ~6.42 and 6.42
- pEC50 (Rat FPR2 [1]): 8.82
- selectivity for rat FPR2 vs. FPR1 (Rat FPR2 [2]): 480 fold
